The structures appear in SMILES notation. Like-named read-outs stand apart in the source and are kept apart here.

Data set [1] in a line: CNS pharmacokinetics by blood and brain-ventricle microdialysis, CE-UV. The conditions noted are these: Sprague-Dawley, rat; for Cmax: intravenous, 40 mg/kg tail vein injection; for AUC(0-t): read-out: AUC (0-12) (converted); for half-life: iv, 40 mg/kg. Type of data set: in vivo, Sprague-Dawley Rats. The protocol:
CNS pharmacokinetics was determined in rats after a tail vein injection of EDO-S101 at 40 mg/kg. Microdialysate samples were collected from the blood and a ventricle of the brain via microdialysis probes at 18 time intervals. The drug concentrations in these samples were determined by capillary electrophoresis with UV detection (CE-UV) followed by calculations for various pharmacokinetic parameters.
Six rats were anesthetized with gasiform isoflurane (1% isoflurane in a mixture of 20% oxygen and 80% nitrogen gas) and immobilized in a stereotaxic frame (KOPF Instruments, Tujunga, CA). Anaesthesia was maintained during the entire procedure. Each guide cannula (CMA Microdialysis Inc., Acton, MA) was stereotactically implanted into the lateral ventricle (AP -0.9, L 1.6, V 3.4, relative to bregma and skull), then secured to the skull by screws and dental cement. Following surgery, each rat was housed individually with food and water ad libitum for 3 days for recovery from cannulation surgery. Microdialysis experiments were carried out on conscious, freely moving rat. On the day of the experiment, the stylet in the guide cannula was replaced with the microdialysis probe (CMA/11 with 4 mm membrane, CMA Microdialysis Inc., Acton, MA) and a vascular microdialysis probe (CMA/20 with 4 mm membrane, CMA Microdialysis Inc, Acton, MA)) was implanted into the jugular vein. The probes had inlet tubes connected to syringes to deliver artificial cerebrospinal fluid (146 mM NaCl, 1.2 mM CaCl2, 3 mM KCI, 1 mM MgCl2, 1.9 mM Na2HPO4, 0.1 mM NaH2PO4, pH 7.4) into the ventricle and Dulbecco’s phosphate-buffered saline (D-PBS) into the blood at 0.5 µl/min flow rate. The outlet tubes were connected to a microfraction collector for collecting the microdailysates at 4° C. The rats were allowed to recover for at least 24 hours prior to dosing. Eighteen samples were collected over 3 hours after EDO-S101 injection (intravenously). All samples were applied to the capillary electrophoresis with UV detection (CE-UV) for the determination of concentration of EDO-S101 in the cerebrospinal fluid (CSF) and blood. The rats were sacrificed using CO2 inhalation after the experiment. The position of the probe was verified by visual inspection at the end of each experiment.
EDO-S101 in the microdialysate were measured by CE-UV (Agilent 3D CE). Briefly, the capillaries were preconditioned with 1 M sodium hydroxide for 2 min, water for 2 min and running buffer [100 mmol/l solution of ammonium acetate (adjust to pH 3.1 with acetic acid)-acetonitrile (50:50, v/v) ] for 3 min. The samples were injected at a pressure of 0.7 psi for 5 s and the injection volume was approximately 5 nl. After injection, EDO-S101 was separated in a fused silica capillary of 50 µm I.D. and 50/65 cm length (effective length/total length) under 15 kv and 25° C. The absorbance from EDO-S101 was detected with UV at […]. […].
To perform a statistical analysis on the data, a two-way repeated measures ANOVA followed by Tukey’s test was used. P<0.05 was considered significant. CNS penetration is determined as the ratio of CSF and blood area under the curve (AUC).

Data set [2] concerns U251 tumours. The data set is described as follows: Mice with implanted U251 tumours, time to progression (Example 3). Type of data set: in vivo. The conditions noted are these: 60 mg/kg iv days 1, 8 and 15, FIG. 8. The protocol:
(§1) The above procedure was followed in similar manner using the cell lines U87G and U251G. Once again, EDO-S101 (60 mg/kg) was administered intravenously via the tail vein, but in these experiments it was administered at days 1, 8 and 15. In place of bendamustime, TMZ was administered as a comparison at 16 mg/kg for 5 consecutive days, po. The mice were sacrificed after 28 days.

Data set [3] deals with U87 tumours. Put plainly: Mice with implanted U87 tumours, time to progression (Example 3). Type of data set: in vivo. The conditions noted are these: 60 mg/kg iv days 1, 8 and 15, FIG. 9. The protocol:
as §1

Data set [4] relates to U251. The data set is described as follows: Clonogenic survival with radiotherapy, U251. Type of data set: cell-based. The conditions noted are these: 2.5 µM or 5 µM, 24 hr, plus radiotherapy, FIG. 10. As to the method:
(§2) In a first experiment, U251, U87 and T98G cell lines were treated with radiotherapy alone or with radiotherapy and EDO-S101.
(§3) For clonogenic survival, exponentially growing cells (70% confluence) were cultured in regular media and treated with EDO-S101 at the appropriate concentrations, or vehicle (final DMSO concentration of 0.1%) for 24 hr. Tumour cell irradiation was done using a 6 MV linear accelerator Elekta Synergy using a clinically calibrated irradiation field of 30 × 30 cm. Two cm thick plates of perspex were positioned above and below the cell culture flasks completely filled with medium to compensate for the build-up effect. Non-irradiated controls were handled identically to the irradiated cells with the exception of the radiation exposure. […] Colonies containing more than 50 cells were counted. The plating efficiency (PE) was calculated as the number of colonies observed/the number of cell plated. The surviving fraction was calculated as the number of colonies formed in the treated dishes compared with the number formed in the control. The survival curves were analyzed using SPSS (Chicago, IL) statistical software by means of a fit of the data by a weighted, stratified, linear regression, according to the linear-quadratic formula: S(D)/S(O)=exp-(aD+bD2).

Data set [5] concerns T98G. The data set is described as follows: Clonogenic survival with radiotherapy, T98G. Type of data set: cell-based. The conditions noted are these: 2.5 µM or 5 µM, 24 hr, plus radiotherapy, FIG. 10. As to the method: as §2, §3
Setting [6] is: CSF (brain lateral ventricle microdialysate), Brain (CSF), 40 mg/kg iv.
Setting [7] is: blood (jugular vein microdialysate), Blood, 40 mg/kg iv.

In general, Cmax refers to the peak of the concentration-time curve. In general, Tmax refers to the time from dosing to the highest level. As usually defined, the half-life is the time needed for the level to fall by half in the phase considered. On to `Cn1c(CCCCCCC(=O)NO)nc2cc(N(CCCl)CCCl)ccc21` [EDO-S101], for which the Cmax in data set [1] (CSF (brain lateral ventricle microdialysate), Brain (CSF)) is 11.2 µM; in data set [1] (blood (jugular vein microdialysate), Blood) it was 184 µM. For the same compound, the Tmax in data set [1] (setting [6]) is 5.67 min; in data set [1] (setting [7]) it was 2.33 min. The AUC(0-t) in data set [1] (setting [6]) is 2.27 µM·h; in data set [1] (setting [7]) it was 13.7 µM·h. For the same compound, the values for the half-life in data set [1] (setting [6]) and in data set [1] (setting [7]) were approximately 9 min and approximately 6 min, respectively. Besides, the Kp in data set [1] (ratio of CSF and blood AUC, 40 mg/kg iv, read-out: AUC ratio (Brain:Blood), CNS penetration) came out at 0.165. Besides, the “time to progression (TTP) versus control and TMZ” value in data set [2] and in data set [3] was “significantly longer” each time. The “% survival rate (surviving fraction) with radiotherapy versus radiotherapy alone” value in data set [4] and in data set [5] was “considerably reduced” each time.

Source of the values: patent publication US20230049350A1, “COMPOUNDS FOR TREATING BRAIN CANCER” (Purdue Pharmaceutical Products L.P., priority 2014, published 2023).
